Source: paper PMC5466349 (Pharmacotherapy, 2014)

Assay: clinical
Conditions: human, in vivo; for half-life: T ½; for half-life / Tmax: geometric mean (90% CI), post-ginseng

| Structure (SMILES) | Cl/Fss geometric mean ratio (90% CI), post-ginseng/pre-ginseng | T ½ geometric mean ratio (90% CI), post-ginseng/pre-ginseng | half-life | Tmax |
| --- | --- | --- | --- | --- |
| Cc1cccc(C)c1OCC(=O)N[C@@H](Cc1ccccc1)[C@@H](O)C[C@H](Cc1ccccc1)NC(=O)[C@H](C(C)C)N1CCCNC1=O [Lopinavir, lopinavir] | 1.05 (0.94–1.17) | 1.19 (0.92–1.46) | 10 h | 2.5 h |
| CC(C)c1nc(CN(C)C(=O)N[C@H](C(=O)N[C@@H](Cc2ccccc2)C[C@H](O)[C@H](Cc2ccccc2)NC(=O)OCc2cncs2)C(C)C)cs1 [Ritonavir, ritonavir] | – | – | 7.71 h | 2.7 h |
